According to patent publication US20170027896A1, “METHODS AND COMPOSITIONS FOR THE TREATMENT OF VASCULAR MALFORMATION” (IFOM - FONDAZIONE ISTITUTO FIRC DI ONCOLOGIA MOLECOLARE, priority 2014, published 2017):
Entries after “also recorded” stand apart in the source; their conditions may differ.

What was measured:
[1] = tested on: b-catenin transcription activity in brain endothelial cells of CCM3-ECKO mice; assay: Immunostaining of brain sections of CCM3-ECKO mice (b-gal reporter, progenitor/EndMT markers, VE-cadherin); format: in vivo, mouse; details: dpn 9
Text: The CCM3-flox/flox mice were generated at TaconicArtemis (Koeln, Germany). Two P-lox sequences were inserted that flank exons 4 and 5 of the murine CCM3 gene, to produce a loss-of-function mutation after excision by Ore recombinase. These CCM3-flox/flox mice were bred with Cdh5(PAC)-CreERT2 mice (Wang et al, 2010) for tamoxifen-inducible endothelial-cell-specific expression of Ore-recombinase and CCM3 gene recombination. The CCM3-flox/flox-Cdh5(PAC)-CreERT2 mice were further bred with BAT-gal mice (Maretto et al, 2003) to monitor the activation of b-catenin transcription signaling, and with Rosa 26-Enhanced […] Fluorescent Protein (EYFP) (Rosa26EYFP) mice (Srinivas et al, 2001) to monitor the expression of Ore-recombinase through the expression of EYFP. Tamoxifen (Sigma) was dissolved in corn oil and 10% ethanol (at 10 mg/ml), and then diluted 1:5 in corn oil before single intragastric administration to dpn 1-2 pups (35 mg/kg body weight), as described in^14. The control (wild-type) mice included CCM3-flox/flox-Cdh5(PAC)-CreERT2-BAT-gal mice treated with the vehicle used to dissolve the tamoxifen (corn oil plus 2% ethanol), and CCM3^+/+-Cdh5(PAC)-CreERT2-BAT-gal mice treated with tamoxifen.
Brains and eyes from mice pups were fixed in 3% paraformaldehyde immediately after dissection, and this fixing was continued overnight at 4° C. The retinas were dissected from the eyes just before staining as the whole mount. Fixed brains were embedded in 4% low-melting-point agarose and sectioned along the sagittal axis ([…]) using a vibratome (1000 Plus, The Vibratome Company, St. Louis, Mo., US).
Brain sections and retinas were stained as floating samples in 12-well and 96-well plates, respectively. They were blocked overnight at 4° C. in 1% fish-skin gelatin with 0.5% Triton X100 and 5% donkey serum in phosphate-buffered saline (PBS) containing 0.01% thimerosal. The samples were incubated overnight at 4° C. with the primary antibodies diluted in 1% fish-skin gelatin with 0.25% Triton X100 in PBS containing 0.01% thimerosal. Following washing with 0.1% Triton X100 in PBS, the secondary antibodies were added for 4 h at room temperature in 1% fish-skin gelatin with 0.25% Triton X100 in PBS containing 0.01% thimerosal. The incubation with DAPI was in PBS for 4 h, which was followed by several washes in PBS, post-fixating with 3% paraformaldehyde for 5 min at room temperature, and further washes in PBS. The brain sections were mounted in Vectashield with DAPI, and the coverslips fixed with nail varnish; the retinas were mounted in Prolong gold with DAPI.
The following antibodies were used: anti-Pecam (hamster; MAB1398Z, Millipore); anti-b-galactosidase (chicken; ab9361, Abcam); anti-VE-cadherin (rat monoclonal; 550548, BD Biosciences); anti-VE-cadherin (goat; sc-6458, Santa Cruz); anti-active-b-catenin (mouse monoclonal clone 8E7) dephosphorylated on Ser37 and Thr41, Millipore); anti-total-b-catenin (mouse monoclonal; Cell Signaling); anti-S100a4 (rabbit; 07-2274, Millipore); anti-Klf4 (goat; AF3158, R&D); anti-CD44 (rat; 553131, BD Biosciences); anti-ID1 (rabbit; sc-488, Santa Cruz); anti-aSMA (mouse monoclonal; F3777, Sigma); anti-GFP (rabbit; A-6455, Invitrogen); anti-podocalyxin (goat; AF1556, R&D); anti-phospho-histone H3 (rabbit; ab51776, Millipore); anti-CCM3 (rabbit; Eurogentec); anti-p-Smad1 (rabbit; 9516, Cell Signaling); anti-endomucin (rabbit; sc-65495, Santa Cruz); anti-α-tubulin (mouse monoclonal; T9026, Sigma).

[2] = tested on: CCM3-knockout brain endothelial cells in primary culture; assay: Immunostaining of CCM3-knockout brain endothelial cells in primary culture; format: cell-based, mouse; details: 48 h
Text: Endothelial cells from the CCM3-flox/flox mice (8-10 weeks old) were isolated from the brain as previously described^13. Recombination of the floxed CCM3 gene was induced by treating the cells at culture day 1 with the AdenoCre viral vector, as previously described^59. The control endothelial cells were an aliquot of the same endothelial cell preparation treated with AdenoGFP, instead of AdenoCre. The cells were then maintained in culture for up to a further 7 days before analysis, as described in the main text. Drug treatments were for 48 h before the processing of the cells. Drugs were added to confluent cells for 48 h before the indicated assays. The final concentrations used were: […] (all from Sigma-Aldrich). As all of these were dissolved in DMSO, control treatment (vehicle) was 0.1% DMSO final concentration, as for drug treatment. Cells cultured in vitro were fixed and stained as described previously^46. The following antibodies were used: […] (hamster; MAB1398Z, Millipore); anti-b-galactosidase (chicken; ab9361, Abcam); anti-VE-cadherin (rat monoclonal; 550548, BD Biosciences); anti-VE-cadherin (goat; sc-6458, Santa Cruz); anti-active-b-catenin (mouse monoclonal clone 8E7) dephosphorylated on […] and Thr41, Millipore); anti-total-b-catenin (mouse monoclonal; […] AF3158, R&D); anti-CD44 (rat; 553131, BD Biosciences); anti-ID1 (rabbit; sc-488, Santa Cruz); anti-aSMA (mouse monoclonal; […], Sigma); anti-GFP (rabbit; A-6455, Invitrogen); anti-podocalyxin (goat; AF1556, R&D); anti-phospho-histone H3 (rabbit; ab51776, Millipore); anti-CCM3 (rabbit; Eurogentec); anti-p-Smad1 (rabbit; 9516, Cell Signaling); anti-endomucin (rabbit; sc-65495, Santa Cruz); anti-α-tubulin (mouse monoclonal; T9026, Sigma).

Compound: CSc1ccc(/C=C2/C(C)=C(CC(=O)O)c3cc(F)ccc32)cc1 [sulindac sulfide, (Z)-5-Fluoro-2-methyl-1-[4-(methylthio)benzylidene]indene-3-acetic acid]
- expression of nuclear reporter gene b-gal in endothelial cells of brain vasculature ([1]; CCM3-ECKO BAT-gal pups): abolition; also recorded: inhibited
- VE-cadherin localization at endothelial cell-cell junctions in brain vessels ([1]; CCM3-ECKO pups): better localized at endothelial cell-cell junctions
- expression of b-catenin target genes / progenitor and EndMT markers (Klf4, S100a4, Id1) in brain endothelium ([1]; CCM3-ECKO pups, immunostaining): strongly reduces; also recorded: inhibited
- VE-cadherin at cell-cell contacts [2]: more localized to cell-cell contacts
- nuclear localization of active b-catenin [2]: strongly inhibited
- overexpression of Klf4 and S100a4 proteins [2]: inhibition; also recorded: inhibited
